In patent US12708640B2, “Synergistic nutritional compositions for treating vestibular associated neurodegenerative diseases” (CELAGENEX RESEARCH (INDIA) PVT. LTD., priority 2021, dated 2026):

Experiments:
Format in all cases: in vivo, Albino Wistar rat
[1] = Rat feed consumption in the sodium arsanilate vestibular dysfunction study; conditions: rats, group value
Excerpt: (§1) “Evaluation of test substance on sodium arsanilate induced vestibular dysfunction (Vertigo disorder) in wistar rats”.
(§2) • Test Species: Rat • Strain: Albino Wistar • Sex: Male/Female • Age: 6-8 Weeks • Body Weight: 180-200 g • Source: In house breed • Total No. of Animals: 42 Animals (7 groups of 6 animals each) • Feed: Normal chow diet (Purina lab diet 5L79 Rat and Mouse 18%) (PMI Nutrition International) Environmental Conditions:
(§3) All the animals were acclimatized for at least 5 days under controlled environmental condition. Total 42 animals were divided into seven groups consisting of 6 animals per group. Normal control (G1) group receiving vehicle, disease control (G2) group receiving sodium arsanilate injection only, standard group (G3) receiving reference standard (vertin) and treatment groups G4, G5, G6 & G7 were treated with the test substances. All the groups (except normal control group) were induced with sodium arsanilate via intratymphanic injection. All the treatment groups were administered daily for 7 consecutive days.
The feed consumption was calculated and reported on a daily basis throughout the study period.

[2] = Rat body weight in the sodium arsanilate vestibular dysfunction study; conditions: rats, group value
Excerpt: as §1, §2, §3
Individual body weights were recorded at receipt, on the day of randomization, on the first day of treatment before dosing and weekly once thereafter throughout the treatment period. The body weight changes for all the animals were calculated and reported along with the body weight data.

[3] = system: sodium arsanilate induced vestibular dysfunction (Vertigo disorder) in wistar rats; assay: Open field test
Excerpt: as §1
(§4) Vestibular dysfunction was induced in rats by intratympanic injection of sodium arsanilate an ototoxic compound. Sodium arsanilate is an arsenic derivative and intratympanic injection result was vestibular nerve degeneration in brain stem with concomitant loss of labyrinthine righting and reduced postural support with exaggerated head dorsiflexion.
as §3
The open-field was circular, with a diameter of 90 cm, and enclosed by a wall 30 cm high. The floor and wall of the open-field was black and the floor was divided into 25 equal area sections by thin white lines. The floor was covered with a transparent plastic coating. The open-field apparatus was located inside a large wooden frame which surrounded on all sides by black curtains. The field was illuminated by two 60-W fluorescent lights located 100 cm above the floor.
At the start of each session the rats were placed in one of the peripheral sections of the open-field and the animal's behavior was monitored by an observer for 10 consecutive minutes. […] At the end of each session the rat was returned to its home cage and the floor of the open-field was cleaned and sponged over with a weak vinegar solution to remove any residual odors.

[4] = system: sodium arsanilate induced vestibular dysfunction (Vertigo disorder) in wistar rats; assay: Air righting reflex (air reflecting index)
Excerpt: as §1, §4, §3
A sponge was spread on a flat surface and the animals were placed in a supine position in the air 50 cm away above the sponge, following which the animal was dropped horizontally.
Four-legged smooth landing on the ground was considered as positive (normal animal), whereas the body or other regions landing first was considered vestibular dysfunction animals. The positive landing rate (%) of each rat in each group was recorded.

[5] = system: sodium arsanilate induced vestibular dysfunction (Vertigo disorder) in wistar rats; assay: Contact righting reflex
Excerpt: as §1, §4, §3
The rats were placed in a syringe core tube in a supine position, following which the recovery time for position correction to be recorded. Normal rats turned over their body position in a few seconds.

[6] = open field test, wrt. disease control G2

In the case of `O=c1ccn([C@@H]2O[C@H](COP(=O)(O)O)[C@@H](O)[C@H]2O)c(=O)[nH]1` [Group 5, Uridine monophosphate], the “Feed Consumption, 0 day” value ([1]; 0 day) was 15.50 gm, the “Feed Consumption, 7th day” value ([1]; 7th day) was 16.67 gm and the “Body Weight, End of the treatment” value ([2]; after 7 days daily treatment) was 190.08 gm. For the same compound, the “Body Weight, Initial” value ([2]; initial) was 189.02 gm, the “Ambulation Score [the number of open-field sections entered by the rat]” value ([3]; animal 1) was 200 and the “Defecation [the number of fecal boli deposited in the open-field]” value ([3]; animal 1) was 4. For the same compound, the “Grooming [the number of grooming bouts exhibited by the rat]” value ([3]; animal 1) was 2, the “Rearing Responses [the number of times the animal raised both forefeet off the floor and extended its body]” value ([3]; animal 1) was 3 and the “Ambulation Score [the number of open-field sections entered by the rat]” value ([3]; animal 2) was 180. The “Defecation [the number of fecal boli deposited in the open-field]” value ([3]; animal 2) was 2, the “Grooming [the number of grooming bouts exhibited by the rat]” value ([3]; animal 2) was 4 and the “Rearing Responses [the number of times the animal raised both forefeet off the floor and extended its body]” value ([3]; animal 2) was 4. For the same compound, the “Ambulation Score [the number of open-field sections entered by the rat]” value ([3]; animal 3) was 190, the “Defecation [the number of fecal boli deposited in the open-field]” value ([3]; animal 3) was 3 and the “Grooming [the number of grooming bouts exhibited by the rat]” value ([3]; animal 3) was 3. The “Rearing Responses [the number of times the animal raised both forefeet off the floor and extended its body]” value ([3]; animal 3) was 3, the “Ambulation Score [the number of open-field sections entered by the rat]” value ([3]; animal 4) was 160 and the “Defecation [the number of fecal boli deposited in the open-field]” value ([3]; animal 4) was 4. The “Grooming [the number of grooming bouts exhibited by the rat]” value ([3]; animal 4) was 3, the “Rearing Responses [the number of times the animal raised both forefeet off the floor and extended its body]” value ([3]; animal 4) was 4 and the “Ambulation Score [the number of open-field sections entered by the rat]” value ([3]; animal 5) was 200. The “Defecation [the number of fecal boli deposited in the open-field]” value ([3]; animal 5) was 3, the “Grooming [the number of grooming bouts exhibited by the rat]” value ([3]; animal 5) was 4 and the “Rearing Responses [the number of times the animal raised both forefeet off the floor and extended its body]” value ([3]; animal 5) was 3. For the same compound, the “Ambulation Score [the number of open-field sections entered by the rat]” value ([3]; animal 6) was 190, the “Defecation [the number of fecal boli deposited in the open-field]” value ([3]; animal 6) was 4 and the “Grooming [the number of grooming bouts exhibited by the rat]” value ([3]; animal 6) was 4. For the same compound, the “Rearing Responses [the number of times the animal raised both forefeet off the floor and extended its body]” value ([3]; animal 6) was 4, the “Ambulation Score [the number of open-field sections entered by the rat], Average” value ([3]; group average of 6 animals) was 186.67 and the “Defecation [the number of fecal boli deposited in the open-field], Average” value ([3]; group average of 6 animals) was 3.33. The “Grooming [the number of grooming bouts exhibited by the rat], Average” value ([3]; group average of 6 animals) was 3.33, the “Rearing Responses [the number of times the animal raised both forefeet off the floor and extended its body], Average” value ([3]; group average of 6 animals) was 3.50 and the “% Improvement in Ambulation score wrt. G2” value [3, 6] was 25.83%. The “% Improvement in Defecation wrt. G2” value [3, 6] was 23.08%, the “% Improvement in Grooming wrt. G2” value [3, 6] was 57.45% and the “% Improvement in Rearing Responses wrt. G2” value [3, 6] was 32.81%. For the same compound, the “Air Righting Reflex (% successfully righted within 5 s)” value ([4]; animal 1) was 40%, the “Air Righting Reflex, Successful out of 5” value ([4]; animal 1, end of 7-day treatment) was 2 and the “Air Righting Reflex (% successfully righted within 5 s)” value ([4]; animal 2) was 40%. The “Air Righting Reflex, Successful out of 5” value ([4]; animal 2, end of 7-day treatment) was 2, the “Air Righting Reflex (% successfully righted within 5 s)” value ([4]; animal 3) was 20% and the “Air Righting Reflex, Successful out of 5” value ([4]; animal 3, end of 7-day treatment) was 1. The “Air Righting Reflex (% successfully righted within 5 s)” value ([4]; animal 4) was 40%, the “Air Righting Reflex, Successful out of 5” value ([4]; animal 4, end of 7-day treatment) was 2 and the “Air Righting Reflex (% successfully righted within 5 s)” value ([4]; animal 5) was 20%. The “Air Righting Reflex, Successful out of 5” value ([4]; animal 5, end of 7-day treatment) was 1, the “Air Righting Reflex (% successfully righted within 5 s)” value ([4]; animal 6) was 40% and the “Air Righting Reflex, Successful out of 5” value ([4]; animal 6, end of 7-day treatment) was 2. The “Air Righting Reflex (% of Rats that successfully righted themselves within 5 s), Average” value ([4]; group average of 6 animals) was 33.33%, the “Contact righting reflex (time)” value ([5]; animal 1, recovery time for position correction) was 30 s and the “Contact righting reflex (time)” value ([5]; animal 2, recovery time for position correction) was 29 s. For the same compound, the “Contact righting reflex (time)” value ([5]; animal 3, recovery time for position correction) was 28 s, the “Contact righting reflex (time)” value ([5]; animal 4, recovery time for position correction) was 27 s and the “Contact righting reflex (time)” value ([5]; animal 5, recovery time for position correction) was 30 s. The “Contact righting reflex (time)” value ([5]; animal 6, recovery time for position correction) was 26 s, the “Contact righting reflex (time), Average” value ([5]; group average of 6 animals) was 28.33 s and the “contact righting reflex, improvement (wrt. the Disease Control)” value ([5]; wrt. the Disease Control) was no more than 30%.
